Experimental data as given in article PMC7723023, “Antimicrobial, anti-cancer, anti-filarial and anti-inflammatory activities of Cowabenzophenone A extracted from the endophytic fungus Aspergillus terreus isolated from a mangrove plant Bruguiera gymnorrhyza” (Mycology, 2019).

Molecular target: α-glucosidase
Test: α-glucosidase inhibition (assay details and enzyme source not described)
Type: biochemical

C=C(C)C1CC23C(=O)C4(C/C=C(\C)CCC=C(C)C)CC(CC2C1(C)C)C(C)(C)C(C(=O)c1ccccc1)(C4=O)C3=O (stereo not shown) [Cowabenzophenone A]
IC50: 7.8 ± 0.5 µM
